Assay results taken from patent US20120082658A1, “Methods for the Treatment of Allergic Diseases” (VentiRx Pharmaceuticals, Inc., priority 2010, published 2012).
Where two headings read alike, the source gives them in different places.

Legend:
TLR9 = target: T1, TLR9 (Homo sapiens, UniProt Q9NR96); assay: HEK293 cells transfected with human TLR9, NF-κB driven reporter; type: cell-based; conditions: concentration up to 25 uM
T1 construct: expressed in transfected cells; host or cells: HEK293
T1 sequence (Q9NR96 26-1032): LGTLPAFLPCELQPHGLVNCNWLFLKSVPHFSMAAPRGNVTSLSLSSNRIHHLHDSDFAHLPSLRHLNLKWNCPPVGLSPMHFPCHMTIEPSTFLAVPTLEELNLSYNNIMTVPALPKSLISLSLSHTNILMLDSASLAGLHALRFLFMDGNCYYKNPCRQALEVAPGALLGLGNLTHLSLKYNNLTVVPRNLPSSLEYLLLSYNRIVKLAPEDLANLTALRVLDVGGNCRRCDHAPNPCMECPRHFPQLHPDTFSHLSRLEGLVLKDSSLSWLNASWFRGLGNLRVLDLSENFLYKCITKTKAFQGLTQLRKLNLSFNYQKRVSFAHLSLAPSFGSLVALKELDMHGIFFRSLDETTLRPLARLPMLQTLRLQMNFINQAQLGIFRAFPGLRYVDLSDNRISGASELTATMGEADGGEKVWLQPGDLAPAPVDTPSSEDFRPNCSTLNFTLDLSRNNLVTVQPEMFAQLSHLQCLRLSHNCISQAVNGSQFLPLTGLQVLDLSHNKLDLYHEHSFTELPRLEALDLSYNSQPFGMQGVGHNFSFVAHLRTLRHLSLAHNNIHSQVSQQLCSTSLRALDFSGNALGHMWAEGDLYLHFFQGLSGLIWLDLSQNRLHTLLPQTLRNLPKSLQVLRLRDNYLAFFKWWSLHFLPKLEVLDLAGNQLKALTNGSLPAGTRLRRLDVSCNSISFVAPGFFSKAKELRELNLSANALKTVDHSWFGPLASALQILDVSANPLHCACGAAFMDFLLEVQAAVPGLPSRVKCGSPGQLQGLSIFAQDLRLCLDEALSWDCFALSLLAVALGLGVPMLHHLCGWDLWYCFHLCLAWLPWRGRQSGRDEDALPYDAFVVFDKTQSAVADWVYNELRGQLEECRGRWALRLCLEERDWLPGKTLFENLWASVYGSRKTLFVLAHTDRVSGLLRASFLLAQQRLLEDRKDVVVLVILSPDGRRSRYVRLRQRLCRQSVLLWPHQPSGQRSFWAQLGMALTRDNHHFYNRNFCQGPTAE
Description: FIG. 8 is two graphs depicting the potency and selectivity of VTX-378 for TLR8. The half-maximal effective concentration (EC50) for VTX-378 activation of TLR8 and TLR7 was assessed in peripheral blood mononuclear cells (PBMCs) by the amount of secreted TNFα (A) and by the activity of NF-κB (B) from 15 healthy donors and also in HEK293 cells transfected with various human TLRs.
(§1) Preclinical studies were performed with VTX-378, the active pharmaceutical ingredient in VTX-1463. The specificity of VTX-378 for human TLR8 relative to other TLRs was assessed in transfected Human Embryonic Kidney 293 (HEK293) cells engineered to express individual TLRs (2-9) via transfection, and assessed using an NF-κB driven reporter system. […] The pharmacologic effects of VTX-378 were characterized in vitro using isolated human peripheral blood mononuclear cells (PBMCs).

[1] = tested on: human peripheral blood mononuclear cells (PBMCs); assay: Cytokine production in isolated human PBMCs; type: cell-based; conditions: for EC50: Homo sapiens, PBMC
Description: as §1

human whole blood = assay: Co-culture of human whole blood, IL-12 and IL-10 production; type: cell-based
Source text: FIG. 9 is two graphs depicting that VTX-378 stimulates production of IL-12 and IL-10.

[2] = tested on: ragweed-sensitized beagle dogs; assay: Model of allergic rhinitis in ragweed-sensitized beagle dogs (acoustic rhinometry, nasal mediators); type: in vivo, beagle dog
Description: FIG. 1 is four graphs establishing that one day pretreatment with VTX-378 reduces nasal congestion.
The therapeutic activity of VTX-378 was assessed in a well characterized model of allergic rhinitis in ragweed-sensitized beagle dogs (FIGS. 1-7). Acoustic rhinometry (AcR) can be used to measure the direct effect on the nasal mucosa following nasal instillation of ragweed antigen.

[3] = single dose 1000 ug intranasal one day prior to ragweed challenge

## CCCN(CCC)C(=O)C1=Cc2ccc(-c3ccc(C(=O)N4CCCC4)cc3)cc2N=C(N)C1 [VTX-378]
TLR9
  activity on TLR9: no detectable activity
[1]; analyte IL-10, read-out: EC50, IL-10 production
  EC50: 120 nM
[1]; analyte IL-12p40, read-out: EC50, IL-12p40 production
  EC50: 230 nM
[1]; analyte IL-12p70, read-out: EC50, IL-12p70 production
  EC50: 220 nM
[1]; VTX-378 1.6 uM
  Mean Mediator Level ± SEM, IL-10: 72 ± 29 pg/mL
  Mean Mediator Level ± SEM, IL-12p70: 38 ± 10 pg/mL
[1]; VTX-378 1.6 uM, *p < 0.05 to Control
  Mean Mediator Level ± SEM, IL-12p40: 140 ± 32* pg/mL
[1]; incubation with isolated human PBMCs
  production of Th-1 cytokines and chemokines including IL-12, IFN, MCP-1 and MIP-1β: stimulated PBMCs to produce
Human whole blood
  production of IL-10: dose dependent increase
  production of IL-12: dose dependent increase
[2]; dose not given
  production of allergic mediators (nasal histamine, leukotrienes C4/D4/E4, prostaglandin D2, prostaglandin E2): significantly reduced
[2]; intranasal 100-1000 mcg
  allergic response to antigen challenge (acoustic rhinometry): dose-dependent, statistically significant reduction
[2]; single dose 100 ug
  level of nasal histamine: less significant
  level of nasal leukotrienes C4/D4/E4: less significant
  level of nasal prostaglandin D2: less significant
  level of nasal prostaglandin E2: less significant
[2]; single dose 100 ug, 500 ug and 1000 ug intranasal one day prior to ragweed challenge
  allergic responses (nasal congestion): significantly attenuated allergic responses
[2]; [3]
  level of nasal histamine: significantly reduced
  level of nasal leukotrienes C4/D4/E4: significantly reduced
  level of nasal prostaglandin D2: significantly reduced
  level of nasal prostaglandin E2: significantly reduced
[2]; single dose of 1000 mcg intranasal before ragweed challenge
  attenuation of nasal congestion: 56.5%±10.0
[2]; two 250 ug doses intranasal one day and four-day prior to ragweed challenge
  allergic responses (nasal congestion): significantly attenuated allergic responses
[2]; two 1000 ug doses intranasal, one day and four-day or one day and eight-day prior to ragweed challenge
  allergic responses (nasal congestion): significantly attenuated allergic responses
[2]; two doses of 1000 mcg separated by 4 days
  improvement of nasal congestion: 65.4%±10.3
[2]; two doses of 1000 mcg separated by 7 days
  improvement of nasal congestion: 71.9%±7.7
